Results published in patent EP4741392A1, “1H-PYRAZOLO[4,3-C]PYRIDINE COMPOUND, AND COMPOSITION THEREOF AND USE THEREOF” (Shenzhen TargetRx Co., Ltd., priority 2023, dated 2025).

Tests used:
Format in all cases: cell-based
[1] = test system: NIH/3T3 BTK C481S cells; experiment: Phosphor-BTK(Y223) assay, adherent cells; settings: Mus musculus, NIH3T3, phosphorylated BTK Y223, NIH/3T3 BTK C481S cells; read-out: NIH/3T3 BTK-C481S pBTK
Summary of the method: (§1)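 NIH/3T3 cells expressing WT or C481S BTK were pretreated with compound for 0.5 h at 37 °C, then stimulated with 1 mM Na3VO4 (final) for 2 h. Lysates were assayed by HTRF for p-BTK Y223 using the 665/620 nm ratio. IC50 was obtained by nonlinear fit of % inhibition versus 0.5% DMSO control.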

[2] = test system: NIH/3T3 BTK WT cells; experiment: Phosphor-BTK(Y223) assay, adherent cells; settings: Mus musculus, NIH3T3, phosphorylated BTK Y223, NIH/3T3 BTK WT cells; read-out: NIH/3T3 BTK-WT pBTK
Summary of the method: as §1

[3] = test system: Ramos cells with BTK WT; experiment: Phosphor-BTK(Y223) assay, suspended cells; settings: Homo sapiens, Ramos, phosphorylated BTK Y223, Ramos cells with BTK WT
Summary of the method: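 Ramos BTK WT cells (2.5 k/well) were treated with compound dilutions for 2 h at 37 °C, then 5 mM Na3VO4 for 3 h. Lysates were read by HTRF p-BTK(Y223) cryptate/d2 antibodies overnight at RT (665/620 ratio). IC50 came from a four-parameter fit of % inhibition versus blank and positive-control wells.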

| Structure (SMILES) | IC50 [1] [nM] | IC50 [2] [nM] | IC50 [3] [nM] |
| --- | --- | --- | --- |
| COc1ccc(F)cc1C(=O)NCc1ccc(-c2ncc(-c3ccc4nccn4n3)c3[nH]nc(N)c23)cc1 [Example 51, N-(4-(3-amino-7-(imidazo[1,2-b]pyridazin-6-yl)-1H-pyrazolo[4,3-c]pyridin-4-yl)benzyl)-5-fluoro-2-methoxybenzamide] | 5 to 10 | ≤ 5 | 5 to 10 |
| COc1ccc(F)cc1C(=O)NCc1ccc(-c2ncc(-c3ccc(C(=O)N4CCOCC4)cn3)c3[nH]nc(N)c23)cc1 [Example 52, N-(4-(3-amino-7-(5-(morpholine-4-carbonyl)pyridin-2-yl)-1H-pyrazolo[4,3-c]pyridin-4-yl)benzyl)-5-fluoro-2-methoxybenzamide] | ≤ 5 | ≤ 5 | ≤ 5 |
| COc1ccc(F)cc1C(=O)NCc1ccc(-c2ncc(-c3ccc(C(=O)N4C[C@H](C)O[C@@H](C)C4)cn3)c3[nH]nc(N)c23)cc1 [Example 53, N-(4-(3-amino-7-(5-((2S,6S)-2,6-dimethylmorpholine-4-carbonyl)pyridin-2-yl)-1H-pyrazolo[4,3-c]pyridin-4-yl)benzyl)-5-fluoro-2-methoxybenzamide] | ≤ 5 | ≤ 5 | 5 to 10 |
| COc1ccc(F)cc1C(=O)NCc1ccc(-c2ncc(-c3ccc(C(=O)N4C[C@@H](C)O[C@H](C)C4)cn3)c3[nH]nc(N)c23)cc1 [Example 54, N-(4-(3-amino-7-(5-((2R,6R)-2,6-dimethylmoroholine-4-carbonyl)pyridin-2-yl)-1H-pyrazolo[4,3-c]pyridin-4-yl)benzyl)-5-fluoro-2-methoxybenzamide] | ≤ 5 | ≤ 5 | ≤ 5 |
| COc1ccc(F)cc1C(=O)NCc1ccc(-c2ncc(-c3ccc(P(C)(C)=O)cn3)c3[nH]nc(N)c23)cc1 [Example 56, N-(4-(3-amino-7-(5-(dimethylphosphoryl)pyridin-2-yl)-1H-pyrazolo[4,3-c]pyridin-4-yl)benzyl)-5-fluoro-2-methoxybenzamide] | > 50 | > 50 | ≤ 5 |
| COc1ccc(F)cc1C(=O)NCc1ccc(-c2ncc(-c3nc4cnccn4n3)c3[nH]nc(N)c23)cc1 [Example 57, N-(4-(7-([1,2,4]triazolo[1,5-a]pyrazin-2-yl)-3-amino-1H-pyrazolo[4,3-c]pyridin-4-yl)benzyl)-5-fluoro-2-methoxybenzamide] | 5 to 10 | ≤ 5 | 10 to 50 |
| COc1ccc(F)cc1C(=O)NCc1ccc(-c2ncc(-c3nc4ccccn4n3)c3[nH]nc(N)c23)cc1 [Example 58, N-(4-(7-([1,2,4]triazolo[1,5-a]pyridin-2-yl)-3-amino-1H-pyrazolo[4,3-c]pyridin-4-yl)benzyl)-5-fluoro-2-methoxybenzamide] | ≤ 5 | ≤ 5 | ≤ 5 |
| COCCOc1ccc(-c2cnc(-c3ccc(CNC(=O)c4cc(F)ccc4OC)cc3)c3c(N)n[nH]c23)nc1 [Example 59, N-(4-(3-amino-7-(5-(2-methoxyethoxy)pyridin-2-yl)-1H-pyrazolo[4,3-c]pyridin-4-yl)benzyl)-5-fluoro-2-methoxybenzamide] | ≤ 5 | ≤ 5 | ≤ 5 |
| COc1ccc(F)cc1C(=O)NCc1ccc(-c2ncc(-c3ccc(OCCN(C)C)cn3)c3[nH]nc(N)c23)cc1 [Example 60, N-(4-(3-amino-7-(5-(2-(dimethylamino)ethoxy)pyridin-2-yl)-1H-pyrazolo[4,3-c]pyridin-4-yl)benzyl)-5-fluoro-2-methoxybenzamide] | ≤ 5 | ≤ 5 | ≤ 5 |
| COc1ccc(F)cc1C(=O)NCc1ccc(-c2ncc(-c3ccc(OCCN4CCOCC4)cn3)c3[nH]nc(N)c23)cc1 [Example 61, N-(4-(3-amino-7-(5-(2-morpholinoethoxy)pyridin-2-yl)-1H-pyrazolo[4,3-c]pyridin-4-yl)benzyl)-5-fluoro-2-methoxybenzamide] | ≤ 5 | ≤ 5 | ≤ 5 |
